The target in the assay is recombinant human GST-Syk (Homo sapiens (Human), UniProt P43405). Description: Homogeneous Time-Resolved Fluorescence (HTRF) assay for the recombinant human Syk enzyme. The conditions noted are these: recombinant human GST-Syk 5 pM, ATP 25 μM, read-out: rhSyk IC50. Type of assay: biochemical. On the procedure: Syk inhibition may be determined using the following assay protocol: Homogeneous Time-Resolved Fluorescence (HTRF) Assay for the Recombinant Human Syk Enzyme: A recombinant GST-hSyk fusion protein was used to measure potency of compounds to inhibit human Syk activity. […] To initiate the reaction the biotinylated substrate peptide (250 nM final concentration) that contains the phosphorylation site for Syk was added with magnesium (5 mM final concentration) and ATP (25 μM final concentration). […] Final volume of the quenching solution was 10 μL.
Take `CC(=O)OC(C)OC(=O)[C@H]1CC[C@H](C(C)(O)c2ccc(-c3cc(C)cc(Nc4cc(C(F)F)ccn4)n3)cn2)CC1` (single isomer, unassigned) [Example 21-3, 1-(acetyloxy)ethyl trans-4-[(1R or 1S)-1-(6-{[4-(difluoromethyl)pyridin-2-yl]amino}-4-methyl-2,3′-bipyridin-6′-yl)-1-hydroxyethyl] cyclohexanecarboxylate]: the half-inhibitory concentration (IC50) amounted to 1.5 nM.
On to `Cc1cc(Nc2cc(C(F)F)ccn2)nc(-c2ccc(C(C)(O)[C@H]3CC[C@H](C(=O)OC(C)OC(=O)C(C)C)CC3)nc2)c1` (single isomer, unassigned) [Example 21-4, 1-[(2-methylpropanoyl)oxy]ethyl trans-4-[(1R or 1S)-1-(6-{[4-(difluoromethyl)pyridin-2-yl]amino}-4-methyl-2,3′-bipyridin-6′-yl)-1-hydroxyethyl] cyclohexanecarboxylate], for which the IC50 was 23 nM.
For `Cc1cc(Nc2cc(C(F)F)ccn2)nc(-c2ccc(C(C)(O)[C@H]3CC[C@H](C(=O)OC(C)OC(=O)C(C)C)CC3)nc2)c1` (single isomer, unassigned) [Example 21-5, 1-[(2-methylpropanoyl)oxy]ethyl trans-4-[(1R or 1S)-1-(6-{[4-(difluoromethyl)pyridin-2-yl]amino}-4-methyl-2,3′-bipyridin-6′-yl)-1-hydroxyethyl] cyclohexanecarboxylate], the IC50 amounted to 33 nM.
On to `CC(=O)OCCOC(=O)[C@H]1CC[C@H](C(C)(O)c2ccc(-c3cc(C)cc(Nc4cc(C(F)F)ccn4)n3)cn2)CC1` (single isomer, unassigned) [Example 21-6, 2-(acetyloxy)ethyl trans-4-[(1R or 1S)-1-(6-{[4-(difluoromethyl)pyridin-2-yl]amino}-4-methyl-2,3′-bipyridin-6′-yl)-1-hydroxyethyl] cyclohexanecarboxylate], for which the IC50 was found to be 15 nM.
Next, `Cc1cc(Nc2cc(C(F)F)ccn2)nc(-c2ccc(C(C)(O)[C@H]3CC[C@H](CO)CC3)nc2)c1` (single isomer, unassigned) [Example 23, (1R or 1S)-1-(6-{[4-(difluoromethyl)pyridin-2-yl]amino}-4-methyl-2,3′-bipyridin-6′-yl)-1-[trans-4-(hydroxymethyl)cyclohexyl]ethanol]: 1 nM; `Cc1cc(Nc2cc(C(F)(F)F)ccn2)nc(-c2ccc(F)nc2)c1` [Example 1-1]: 38 nM.
As for `Cc1ccnc(Nc2cc(C)cc(-c3ccc(F)nc3)n2)c1` [Example 1-2], the IC50 was 111 nM.
For the compound `Cc1ccnc(Nc2cc(C)cc(-c3ccnc(F)c3)n2)c1` [Example 1-3], the IC50 was 135 nM.
As for `Cc1cc(Nc2cc(C(F)(F)F)ccn2)nc(-c2ccnc(F)c2)c1` [Example 1-4], the IC50 is 87 nM.
For `Cc1cc(Nc2cc(C(F)(F)F)ccn2)nc(-c2ccc(C3(O)CCN(C(=O)OC(C)(C)C)CC3)nc2)c1` [Example 1-5], the IC50 was 406 nM.
Turning to `CCOC(=O)C1CCC(O)(c2ccc(-c3cc(C)cc(Nc4cc(C(F)(F)F)ccn4)n3)cn2)CC1` (centres unmarked) [Example 1-10], the IC50 was 45 nM.
The result for `CCOC(=O)C1CCC(O)(c2ccc(-c3cc(C)cc(Nc4cc(C(F)(F)F)ccn4)n3)cn2)CC1` (centres unmarked) [Example 1-11] reads 47 nM.
In the case of `COC(=O)C1CCC(C(=O)c2ccc(-c3cc(C)cc(Nc4cc(C(F)(F)F)ccn4)n3)cn2)CC1` (centres unmarked) [Example 1-12], the IC50 was 643 nM.
Next, `Cc1cc(Nc2cc(C(F)F)ccn2)nc(-c2ccc(C3(O)CCC3)nc2)c1` [Example 1-13]: 5 nM; `Cc1cc(Nc2cc(C(F)F)ccn2)nc(-c2ccc(C(C)(C)O)nc2)c1` [Example 1-14]: 8 nM; `CCCCOC(=O)C1CCC(C(C)(O)c2ccc(-c3cc(C)cc(Nc4cc(C(F)(F)F)ccn4)n3)cn2)CC1` (centres unmarked) [Example 1-15]: 19 nM.
For the compound `CCC(O)(c1ccc(-c2cc(C)cc(Nc3cc(C(F)(F)F)ccn3)n2)cn1)C1CCC(C(=O)OC)CC1` (centres unmarked) [Example 1-16], the IC50 came to 12 nM.
Regarding `COC(=O)C1CCC(C(O)(c2ccc(-c3cc(C)cc(Nc4cc(C(F)(F)F)ccn4)n3)cn2)C2CC2)CC1` (centres unmarked) [Example 1-17], the IC50 was 16 nM.
The result for `Cc1cc(Nc2cc(C(F)(F)F)ccn2)nc(-c2ccc(C3(O)CCC(C(=O)O)CC3)nc2)c1` (centres unmarked) [Example 1-18] reads 1 nM; that for `Cc1cc(Nc2cc(C(F)(F)F)ccn2)nc(-c2ccc(C3(O)CCC(C(=O)O)CC3)nc2)c1` (centres unmarked) [Example 1-19], 3 nM; that for `Cc1cc(Nc2cc(C(F)(F)F)ccn2)nc(-c2ccc(C3(O)CCCc4cc(C(=O)O)ccc43)nc2)c1` (centres unmarked) [Example 1-21], 2 nM.
The result for `Cc1cc(Nc2cc(C(F)(F)F)ccn2)nc(-c2ccc(C3(O)CCCc4cc(C(=O)O)ccc43)nc2)c1` (centres unmarked) [Example 1-22] reads 1 nM; that for `Cc1cc(Nc2cc(C(F)(F)F)ccn2)nc(-c2ccc(C3(O)CCC(C(=O)O)C(C)(C)C3)nc2)c1` (centres unmarked) [Example 1-23], 29 nM; that for `Cc1cc(Nc2cc(C(F)(F)F)ccn2)nc(-c2ccc(C3(O)CCC(C(=O)O)C(C)(C)C3)nc2)c1` (centres unmarked) [Example 1-24], 8 nM.
In the case of `Cc1cc(Nc2cc(C(F)(F)F)ccn2)nc(-c2ccc(C3(O)CCC(C(=O)O)C(C)(C)C3)nc2)c1` (centres unmarked) [Example 1-25], the IC50 turned out to be 1 nM.
The result for `Cc1cc(Nc2cc(C(F)(F)F)ccn2)nc(-c2ccc(C3(O)CCC(C(=O)O)C(C)(C)C3)nc2)c1` (centres unmarked) [Example 1-26] reads 1 nM; that for `CCC(O)(c1ccc(-c2cc(C)cc(Nc3cc(C(F)(F)F)ccn3)n2)cn1)C1CCC(C(=O)O)CC1` (centres unmarked) [Example 1-30], under 0.5 nM.
The result for `Cc1cc(Nc2cc(C(F)(F)F)ccn2)nc(-c2ccc(C(O)(C3CCC(C(=O)O)CC3)C3CC3)nc2)c1` (centres unmarked) [Example 1-31] reads under 0.5 nM; that for `Cc1cc(Nc2cc(C3CC3)ccn2)nc(-c2ccc(C(C)(O)C3CCC(C(=O)O)CC3)nc2)c1` (centres unmarked) [Example 1-32], 1 nM; that for `CC(O)(c1ccc(-c2cc(C3CC3)cc(Nc3cc(C(F)F)ccn3)n2)cn1)C1CCC(C(=O)O)CC1` (centres unmarked) [Example 1-33], under 0.5 nM.
The result for `CC(C)(O)c1cc(Nc2cc(C(F)F)ccn2)nc(-c2ccc(C(C)(O)C3CCC(C(=O)O)CC3)nc2)c1` (centres unmarked) [Example 1-34] reads 1 nM.
On to `Cc1cc(Nc2cc(C(F)F)ccn2)nc(-c2ccc(C(C)(O)C3CCC(C(=O)O)C(C)C3)nc2)c1` (centres unmarked) [Example 1-35], for which the IC50 is under 0.5 nM.
Regarding `Nc1cc(Nc2cc(C(F)(F)F)ccn2)nc(-c2ccc(NC3CCNC3=O)nc2)c1` (centres unmarked) [Example 2, 3-[(4-Amino-6-{[4-(trifluoromethyl)pyridin-2-yl]amino}-2,3′-bipyridin-6′-yl)amino]pyrrolidin-2-one], the IC50 is 4 nM.
As for `Cc1cc(Nc2cc(C(F)(F)F)ccn2)nc(-c2ccc(N3CCCC(NC(=O)OC(C)(C)C)C3)nc2)c1` (centres unmarked) [Example 2-2], the IC50 was 271 nM.
As to `Cc1cc(Nc2cc(C(F)(F)F)ccn2)nc(-c2ccc(N3CCC(NC(=O)OC(C)(C)C)C3)nc2)c1` (centres unmarked) [Example 2-3], the IC50 was determined as 248 nM.
As to `Cc1cc(Nc2cc(C(F)(F)F)ccn2)nc(-c2ccc(NC3CCN(C(=O)OC(C)(C)C)CC3)nc2)c1` [Example 2-4], the IC50 stood at 91 nM.
On to `Cc1cc(Nc2cc(C(F)(F)F)ccn2)nc(-c2ccc(NC3CCNC3=O)nc2)c1` (centres unmarked) [Example 2-9], for which the IC50 amounted to 4 nM.
Next, `Cc1cc(Nc2cc(C(F)(F)F)ccn2)nc(-c2ccc(N3CCCC3C(=O)O)nc2)c1` (centres unmarked) [Example 2-10]: 3 nM; `Cc1cc(Nc2cc(C(F)(F)F)ccn2)nc(-c2ccc(N3CCC3C(=O)O)nc2)c1` (centres unmarked) [Example 2-11]: 3 nM.
`Cc1cc(Nc2cc(C(F)(F)F)ccn2)nc(-c2ccc(NC3CCNC3=O)nc2)c1` (centres unmarked) [Example 2-16]: the IC50 is 6 nM.
Next, `Cc1cc(Nc2cc(C(F)(F)F)ccn2)nc(-c2ccc(N3CCCC3C(=O)O)nc2)c1` (centres unmarked) [Example 2-17]: 39 nM; `Cc1cc(Nc2cc(C(F)(F)F)ccn2)nc(-c2ccc(N3CCC3C(=O)O)nc2)c1` (centres unmarked) [Example 2-18]: 33 nM.
As to `Cc1cc(Nc2cc(C(F)(F)F)ccn2)nc(-c2ccc(NC(C)(C)C(=O)O)nc2)c1` [Example 2-19], the IC50 came out at 19 nM.
Next, `Cc1cc(Nc2cc(C(F)(F)F)ccn2)nc(-c2ccc(N3CCN(C(=O)N4CCCC(C(=O)O)C4)CC3)nc2)c1` (centres unmarked) [Example 2-20]: 2 nM; `Cc1cc(Nc2cc(C(F)(F)F)ccn2)nc(-c2ccc(N3CC(C4CCCC(C(=O)O)C4)C3)nc2)c1` (centres unmarked) [Example 2-21]: 2 nM.
Next, `Cc1cc(Nc2cc(C(F)(F)F)ccn2)nc(-c2ccc(N3CC(C4CCC(C(=O)O)CC4)C3)nc2)c1` (centres unmarked) [Example 2-22]: 3 nM; `Cc1cc(Nc2cc(C(F)(F)F)ccn2)nc(-c2ccc(NCC3CCC(C(=O)O)CC3)nc2)c1` (centres unmarked) [Example 2-23]: 3 nM.
On to `Cc1cc(Nc2cc(C(F)(F)F)ccn2)nc(-c2ccc(NC3CCC(C(=O)O)CC3)nc2)c1` (centres unmarked) [Example 2-24], for which the IC50 is 1 nM.
Turning to `Cc1cc(Nc2cc(C(F)(F)F)ccn2)nc(-c2ccc(NC3CCC(C(=O)O)CC3)nc2)c1` (centres unmarked) [Example 2-25], the IC50 turned out to be 7 nM.
Consider `Cc1cc(Nc2cc(C(F)(F)F)ccn2)nc(-c2ccc(N3CCC(C(=O)N4CCC(C(=O)O)CC4)CC3)nc2)c1` [Example 2-26], for which the IC50 turned out to be 3 nM.
On to `Cc1cc(Nc2cc(C(F)(F)F)ccn2)nc(-c2ccc(N3CCCC(C(=O)N4CCCC(C(=O)O)C4)C3)nc2)c1` (centres unmarked) [Example 2-27], for which the IC50 is 2 nM.
Take `Cc1cc(Nc2cc(C(F)(F)F)ccn2)nc(-c2ccc(N3CCCC(C(=O)N4CCCC(C(=O)O)C4)C3)nc2)c1` (centres unmarked) [Example 2-28]: the IC50 worked out at 3 nM.
`Cc1cc(Nc2cc(C(F)(F)F)ccn2)nc(-c2ccc(N3CCC4CCC(C(=O)O)CC4C3)nc2)c1` (centres unmarked) [Example 2-29]: the IC50 was 6 nM.
